Literature values, collected in US20120294924A1, “Peptide-Lipid Conjugates And Uses Thereof” (priority 2011, published 2012).
No end group written: not given here.

Details: qualitative statement, Li et al., Biochimica et Biophysica Acta 1768:411-418, 2007

HAEHKVKIGVEQKYGQFPQGTEVTYTCSGNYFLM [Sushi-3, 34mer peptide from a Sushi domain of horseshoe crab Factor C]
binding to LPS: bind to LPS
